Here are results for 23 compounds from patent publication US9499535B2, “Kinase inhibitors” (ORIGENIS GMBH, priority 2011, dated 2016).

The target in one assay is T1, SYK kinase (Homo sapiens, UniProt P43405).
T1 construct: purchased Invitrogen, Carlsbad
Description: SYK assay (OMNIA Kinase Assay, Invitrogen). As to conditions: apparent Ki calculated from the IC50 using the Cheng-Prusoff equation; 1 mM ATP, 10 μM Peptide Substrate; read-out: SYK Activities: Ki. In kind it is biochemical. In a few lines:
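Continuous SOX-fluorescence (Omnia) readout of Tyr 7 peptide (10 μM) phosphorylation with 1 mM ATP and 0.2 mM DTT at 30° C, started by SYK addition. Fluorescence (λex 360/λem 485 nm) was read every 30 s for 30 min. IC50 from velocity vs concentration; apparent Ki via Cheng-Prusoff.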

A further assay has as its target LRRK2 (Homo sapiens, UniProt Q5S007). The experiment in a line: LRRK2 assay (LanthaScreen Eu Kinase Binding Assay). The note with it: 5 nM LRRK2, 10 nM tracer 236, RT 1 h; read-out: LRRK2 Activites: IC50. In a few lines:
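Kinase binding was detected by europium anti-tag antibody FRET with a competing tracer, so inhibitor binding lowers the FRET signal. IC50 came from a variable-slope sigmoidal fit of emission ratio against inhibitor concentration.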

The next assay concerns the target MYLK (Homo sapiens, UniProt Q15746). The experiment in a line: MYLK assay (LanthaScreen Eu Kinase Binding Assay). The note with it: 5 nM MYLK, 30 nM tracer 236, RT 1 h; read-out: MYLK Activites: IC50. The protocol: In the assay LanthaScreen™ Eu Kinase Binding Assay by Invitrogen Corporation (Carlsbad) the effect of invention of a compound on the phosphorylation is determined by measurement of fluorescence intensity emission ratio based on the binding and displacement of a proprietary, Alexa Fluor® 647-labeled, ATP-competitive kinase inhibitor scaffold (kinase tracer) to the kinase of interest as described above.
To the wells of an 384 well small volume plate (Greiner, Frickenhausen) are added (i) the compound under test in 5% DMSO/distilled water (5 μl), (ii) 5 μl of the kinase antibody mixture resulting in a final concentration 5 nM MYLK, 2 nM EU-Anti-GST antibody in 1× kinase buffer A. The reaction was started with addition of (iii) 5 μl resulting in a final concentration of 30 nM tracer 236. The assay plate was incubated at RT for 1 h and fluorescence intensitiy readings were collected using a TECAN M1000 at two wavelengthes of λex 340/λem 615 nm and λex 340/λem 665 nm with a delay time of 100 μs and an integration time of 200 μs after 60 minutes. The emission ratio was calculated by division of the acceptor/tracer emission ([…]) by the antibody/donor emission ([…]). The inhibitor concentration was plotted versus the emission ratio to determine the IC50 using XLFit 5.0 (IDBS, Guildford) to fit to a sigmoidal dose response curve with a variable slope.

Where only a bound is given, the exact number is not on record here.

Sequence of LRRK2 (Q5S007 970-2527 limits assumed): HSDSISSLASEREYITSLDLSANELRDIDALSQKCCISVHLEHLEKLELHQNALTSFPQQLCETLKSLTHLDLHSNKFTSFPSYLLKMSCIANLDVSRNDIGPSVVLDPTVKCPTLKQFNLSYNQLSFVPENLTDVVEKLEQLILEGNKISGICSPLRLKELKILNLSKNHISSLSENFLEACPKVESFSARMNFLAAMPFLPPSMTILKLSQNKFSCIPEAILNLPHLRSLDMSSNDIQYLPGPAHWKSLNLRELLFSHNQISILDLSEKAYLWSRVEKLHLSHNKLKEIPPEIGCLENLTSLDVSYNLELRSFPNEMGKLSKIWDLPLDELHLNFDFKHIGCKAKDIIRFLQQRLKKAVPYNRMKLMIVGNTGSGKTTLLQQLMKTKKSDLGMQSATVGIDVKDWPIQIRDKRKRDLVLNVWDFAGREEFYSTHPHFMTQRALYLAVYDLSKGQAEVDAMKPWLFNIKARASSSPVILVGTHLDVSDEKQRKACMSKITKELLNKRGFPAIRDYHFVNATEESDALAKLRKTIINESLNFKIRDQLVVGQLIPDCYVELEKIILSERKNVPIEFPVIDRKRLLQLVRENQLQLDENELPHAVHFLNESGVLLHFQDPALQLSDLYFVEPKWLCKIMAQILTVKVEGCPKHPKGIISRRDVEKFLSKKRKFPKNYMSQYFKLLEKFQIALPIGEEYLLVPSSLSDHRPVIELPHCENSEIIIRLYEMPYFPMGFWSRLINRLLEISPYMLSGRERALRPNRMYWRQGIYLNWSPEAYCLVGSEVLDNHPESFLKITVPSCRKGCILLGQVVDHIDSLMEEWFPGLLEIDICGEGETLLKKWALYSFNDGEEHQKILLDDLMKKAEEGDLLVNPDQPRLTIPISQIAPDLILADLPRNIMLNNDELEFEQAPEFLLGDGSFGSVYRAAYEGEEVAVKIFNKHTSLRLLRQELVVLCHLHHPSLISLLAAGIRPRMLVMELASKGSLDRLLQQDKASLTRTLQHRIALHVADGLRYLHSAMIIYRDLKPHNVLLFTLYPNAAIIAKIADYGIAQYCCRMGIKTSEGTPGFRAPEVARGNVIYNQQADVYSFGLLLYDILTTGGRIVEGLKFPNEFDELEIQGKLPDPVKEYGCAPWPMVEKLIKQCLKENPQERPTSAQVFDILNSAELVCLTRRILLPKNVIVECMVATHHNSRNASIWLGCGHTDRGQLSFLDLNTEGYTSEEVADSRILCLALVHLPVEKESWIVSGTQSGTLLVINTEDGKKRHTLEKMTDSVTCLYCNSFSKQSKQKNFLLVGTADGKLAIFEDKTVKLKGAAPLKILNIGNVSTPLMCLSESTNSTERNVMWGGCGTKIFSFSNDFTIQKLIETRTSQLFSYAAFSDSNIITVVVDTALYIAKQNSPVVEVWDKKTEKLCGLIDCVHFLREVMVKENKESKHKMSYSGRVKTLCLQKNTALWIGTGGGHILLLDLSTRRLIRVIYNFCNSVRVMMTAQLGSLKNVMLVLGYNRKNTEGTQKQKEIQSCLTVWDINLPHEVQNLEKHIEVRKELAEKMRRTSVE
Sequence of MYLK (Q15746 whole entry): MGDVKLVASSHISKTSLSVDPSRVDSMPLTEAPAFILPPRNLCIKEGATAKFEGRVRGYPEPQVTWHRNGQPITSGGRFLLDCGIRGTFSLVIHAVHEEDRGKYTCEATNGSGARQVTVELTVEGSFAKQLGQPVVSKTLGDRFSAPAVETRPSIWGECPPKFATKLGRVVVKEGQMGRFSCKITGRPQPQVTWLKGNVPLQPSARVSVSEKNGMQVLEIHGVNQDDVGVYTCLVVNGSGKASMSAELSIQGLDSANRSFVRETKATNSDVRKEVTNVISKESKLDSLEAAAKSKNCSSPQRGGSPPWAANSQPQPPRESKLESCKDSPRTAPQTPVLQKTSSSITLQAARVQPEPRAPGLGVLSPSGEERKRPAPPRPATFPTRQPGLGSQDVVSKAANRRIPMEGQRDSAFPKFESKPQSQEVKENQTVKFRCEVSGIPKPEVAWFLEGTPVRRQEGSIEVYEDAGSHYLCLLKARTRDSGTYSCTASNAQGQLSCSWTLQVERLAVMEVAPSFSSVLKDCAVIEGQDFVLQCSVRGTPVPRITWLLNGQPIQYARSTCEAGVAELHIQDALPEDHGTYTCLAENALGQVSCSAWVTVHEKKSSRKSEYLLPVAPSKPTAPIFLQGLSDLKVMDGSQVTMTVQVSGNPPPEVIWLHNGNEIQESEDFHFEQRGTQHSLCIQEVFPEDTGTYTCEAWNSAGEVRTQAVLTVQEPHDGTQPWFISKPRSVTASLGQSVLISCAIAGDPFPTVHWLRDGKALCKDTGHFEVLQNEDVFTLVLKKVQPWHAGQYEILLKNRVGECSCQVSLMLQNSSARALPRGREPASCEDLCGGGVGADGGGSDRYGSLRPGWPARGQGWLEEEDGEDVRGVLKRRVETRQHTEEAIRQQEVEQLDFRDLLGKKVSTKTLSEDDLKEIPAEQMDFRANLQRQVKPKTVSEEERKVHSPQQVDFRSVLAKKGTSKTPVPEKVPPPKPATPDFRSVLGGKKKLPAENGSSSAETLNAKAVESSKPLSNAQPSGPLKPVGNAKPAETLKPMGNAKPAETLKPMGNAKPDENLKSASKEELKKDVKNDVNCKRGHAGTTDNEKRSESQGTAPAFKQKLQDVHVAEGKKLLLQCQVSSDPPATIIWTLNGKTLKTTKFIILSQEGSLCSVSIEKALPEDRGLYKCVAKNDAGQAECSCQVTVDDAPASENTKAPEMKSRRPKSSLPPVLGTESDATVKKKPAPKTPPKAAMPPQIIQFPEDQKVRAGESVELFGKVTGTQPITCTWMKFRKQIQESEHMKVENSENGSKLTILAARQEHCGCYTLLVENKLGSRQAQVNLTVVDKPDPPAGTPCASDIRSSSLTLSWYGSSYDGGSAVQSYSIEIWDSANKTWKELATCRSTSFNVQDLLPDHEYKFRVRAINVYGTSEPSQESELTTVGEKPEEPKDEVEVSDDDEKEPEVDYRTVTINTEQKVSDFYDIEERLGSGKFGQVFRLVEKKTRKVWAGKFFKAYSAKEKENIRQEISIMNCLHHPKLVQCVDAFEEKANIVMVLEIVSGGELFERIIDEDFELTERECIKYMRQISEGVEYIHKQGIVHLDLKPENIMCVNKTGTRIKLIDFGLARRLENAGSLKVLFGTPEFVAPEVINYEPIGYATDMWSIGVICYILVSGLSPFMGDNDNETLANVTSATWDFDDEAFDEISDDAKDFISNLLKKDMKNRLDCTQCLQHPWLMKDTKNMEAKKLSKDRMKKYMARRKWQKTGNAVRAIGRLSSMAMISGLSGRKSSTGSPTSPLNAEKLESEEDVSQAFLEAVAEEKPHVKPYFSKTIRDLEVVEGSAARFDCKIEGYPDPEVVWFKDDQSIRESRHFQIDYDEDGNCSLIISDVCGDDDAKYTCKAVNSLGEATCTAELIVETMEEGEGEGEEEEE

`COc1ccc2nc(Nc3ccc(N4CCN(C)CC4)cc3)c3n[nH]cc3c2c1` [Example #42, (8-Methoxy-2H-pyrazolo[3,4-c]quinolin-4-yl)-[4-(4-methyl-piperazin-1-yl)-phenyl]-amine]: the Ki on SYK kinase is 10 to 100 nM. The IC50 was 10 to 100 nM on LRRK2 and below 5 µM on MYLK.

On to `CN1CCN(c2ccc(Nc3nc4ccc(Br)cc4c4c[nH]nc34)cc2)CC1` [Example #43, (8-Bromo-2H-pyrazolo[3,4-c]quinolin-4-yl)-[4-(4-methyl-piperazin-1-yl)-phenyl]-amine], for which the Ki at SYK kinase was below 10 nM. Also, the values for the 50% inhibitory concentration (IC50) on LRRK2 and on MYLK were 100 to 1000 nM and below 5 µM, respectively.

Regarding `COc1ccc2nc(Nc3cccc(N)c3)c3n[nH]cc3c2c1` [Example #44, N-(8-Methoxy-2H-pyrazolo[3,4-c]quinolin-4-yl)-benzene-1,3-diamine], at SYK kinase, the Ki was 10 to 100 nM. Also, the IC50 at LRRK2 was 10 to 100 nM; on MYLK it was below 5 µM.

Regarding `COc1ccc2nc(Nc3cccc(C(=N)N)c3)c3n[nH]cc3c2c1` [Example #49, 3-(8-Methoxy-2H-pyrazolo[3,4-c]quinolin-4-ylamino)-benzamidine], the Ki on SYK kinase was 100 to 1000 nM. The half-inhibitory concentration (IC50) was 100 to 1000 nM on LRRK2 and below 5 µM on MYLK.

As to `COc1ccc2nc(Nc3cccc(C(N)=O)c3)c3n[nH]cc3c2c1` [Example #52, 3-(8-Methoxy-2H-pyrazolo[3,4-c]quinolin-4-ylamino)-benzamide], on SYK kinase, the Ki is 100 to 1000 nM. Besides, the half-inhibitory concentration (IC50) on LRRK2 is 100 to 1000 nM; at MYLK, below 5 µM.

As for `COc1ccc2nc(Nc3ccc(OC)c(OC)c3)c3n[nH]cc3c2c1` [Example #53, (3,4-Dimethoxy-phenyl)-(8-methoxy-2H-pyrazolo[3,4-c]quinolin-4-yl)-amine], the Ki on SYK kinase is 10 to 100 nM. Also, the IC50 on LRRK2 was 100 to 1000 nM; at MYLK it was below 5 µM.

For the compound `COc1ccc2nc(Nc3ccc4nc(C)[nH]c4c3)c3n[nH]cc3c2c1` [Example #55, (8-Methoxy-2H-pyrazolo[3,4-c]quinolin-4-yl)-(2-methyl-3H-benzoimidazol-5-yl)-amine], the Ki at SYK kinase is 10 to 100 nM. Further, the IC50 was 100 to 1000 nM at LRRK2 and below 5 µM at MYLK.

Regarding `c1cnc2c(c1)nc(Nc1ccc3[nH]ncc3c1)c1n[nH]cc12` [Example #56, (1H-Indazol-5-yl)-(2H-2,3,5,9-tetraaza-cyclopenta[a]naphthalen-4-yl)-amine], the Ki at SYK kinase was below 10 nM. Further, the half-inhibitory concentration (IC50) on LRRK2 is 10 to 100 nM; at MYLK, below 5 µM.

Take `COc1ccc2nc(Nc3ccc(C(=O)O)cc3)c3n[nH]cc3c2c1` [Example #57, 4-(8-Methoxy-2H-pyrazolo[3,4-c]quinolin-4-ylamino)-benzoic-acid]: the Ki at SYK kinase was 10 to 100 nM. The IC50 was 100 to 1000 nM at LRRK2 and below 5 µM on MYLK.

As to `COc1ccc2nc(Nc3cc(OC)c(OC)c(OC)c3)c3n[nH]cc3c2c1` [Example #67, (8-Methoxy-2H-pyrazolo[3,4-c]quinolin-4-yl)-(3,4,5-trimethoxy-phenyl)-amine], the Ki at SYK kinase is below 10 nM. Besides, the results for the half-inhibitory concentration (IC50) on LRRK2 and on MYLK were 100 to 1000 nM and below 5 µM, respectively.

Turning to `COc1ccc2nc(Nc3ccc4[nH]c(=O)[nH]c4c3)c3n[nH]cc3c2c1` [Example #71, 5-(8-Methoxy-2H-pyrazolo[3,4-c]quinolin-4-ylamino)-1,3-dihydro-benzoimidazol-2-one], on SYK kinase, the Ki is 10 to 100 nM. In addition, the half-maximal inhibitory concentration (IC50) is 100 to 1000 nM at LRRK2 and below 5 µM on MYLK.

Regarding `COc1ccc2nc(Nc3ccc(CN)cc3)c3[nH]ncc3c2c1` [Example #73, (4-Aminomethyl-phenyl)-(8-methoxy-3H-pyrazolo[3,4-c]quinolin-4-yl)-amine], on SYK kinase, the Ki was 10 to 100 nM. For the same compound, the concentration for half-maximal inhibition (IC50) on LRRK2 was 100 to 1000 nM; at MYLK it was below 5 µM.

Take `CN(C)c1ccc(Nc2nc3ccc(Br)cc3c3c[nH]nc23)cc1` [Example #84, N-(8-Bromo-2H-pyrazolo[3,4-c]quinolin-4-yl)-N′,N′-dimethyl-benzene-1,4-diamine]: the Ki on SYK kinase is 10 to 100 nM. In addition, the half-inhibitory concentration (IC50) on LRRK2 is 100 to 1000 nM; at MYLK, below 5 µM.

Consider `COc1ccc2nc(Nc3ccc(C4=NCCN4)cc3)c3n[nH]cc3c2c1` [Example #86, [4-(4,5-Dihydro-1H-imidazol-2-yl)-phenyl]-(8-methoxy-2H-pyrazolo[3,4-c]quinolin-4-yl)-amine], for which the Ki at SYK kinase is 10 to 100 nM. The figures for the IC50 on LRRK2 and on MYLK were 100 to 1000 nM and below 5 µM, respectively.

`COc1ccc2nc(Nc3ccc(N4CCOCC4=O)cc3)c3n[nH]cc3c2c1` [Example #87, 4-[4-(8-Methoxy-2H-pyrazolo[3,4-c]quinolin-4-ylamino)-phenyl]-morpholin-3-one]: the Ki on SYK kinase is 100 to 1000 nM. Besides, the IC50 at LRRK2 was 10 to 100 nM; at MYLK, below 5 µM.

In the case of `COc1ccc2nc(Nc3ccc(-c4nnn[nH]4)cc3)c3[nH]ncc3c2c1` [Example #98, (8-Methoxy-3H-pyrazolo[3,4-c]quinolin-4-yl)-[4-(1H-tetrazol-5-yl)-phenyl]-amine], on SYK kinase, the Ki is 100 to 1000 nM. Also, the IC50 was 100 to 1000 nM on LRRK2 and below 5 µM at MYLK.

`COc1ccc2nc(Nc3ccc(C4CCN(C)CC4)cc3)c3n[nH]cc3c2c1` [Example #102, (8-Methoxy-2H-pyrazolo[3,4-c]quinolin-4-yl)-[4-(1-methyl-piperidin-4-yl)-phenyl]-amine]: the Ki at SYK kinase is 10 to 100 nM. Moreover, the half-inhibitory concentration (IC50) on LRRK2 was 100 to 1000 nM; at MYLK it was below 5 µM.

Regarding `COc1ccc2nc(Nc3ccc(CC(N)=O)cc3)c3[nH]ncc3c2c1` [Example #112, 2-[4-(8-Methoxy-3H-pyrazolo[3,4-c]quinolin-4-ylamino)-phenyl]-acetamide], at SYK kinase, the Ki was 10 to 100 nM. The values for the half-maximal inhibitory concentration (IC50) on LRRK2 and on MYLK were 100 to 1000 nM and below 5 µM, respectively.

For the compound `COc1ccc2nc(Nc3ccc(OC)c(O)c3)c3n[nH]cc3c2c1` [Example #118, 2-Methoxy-5-(8-methoxy-2H-pyrazolo[3,4-c]quinolin-4-ylamino)-phenol], the Ki at SYK kinase is below 10 nM. Besides, the 50% inhibitory concentration (IC50) was 10 to 100 nM at LRRK2 and below 5 µM at MYLK.

For `COc1ccc2nc(Nc3cccc(NC(C)=O)c3)c3[nH]ncc3c2c1` [Example #120, N-[3-(8-Methoxy-3H-pyrazolo[3,4-c]quinolin-4-ylamino)-phenyl]-acetamide], on SYK kinase, the Ki was 10 to 100 nM. In addition, the half-inhibitory concentration (IC50) at LRRK2 was 10 to 100 nM; on MYLK it was below 5 µM.

Take `COc1ccc2nc(Nc3cn[nH]c3)c3[nH]ncc3c2c1` [Example #121, (8-Methoxy-3H-pyrazolo[3,4-c]quinolin-4-yl)-(1H-pyrazol-4-yl)-amine]: the Ki on SYK kinase is 10 to 100 nM. For the same compound, the values for the IC50 on LRRK2 and at MYLK were 100 to 1000 nM and below 5 µM, respectively.

As to `COc1ccc(Nc2nc3cc(OC)c(OC)cc3c3c[nH]nc23)cc1OC` [Example #122, (3,4-Dimethoxy-phenyl)-(7,8-dimethoxy-2H-pyrazolo[3,4-c]quinolin-4-yl)-amine], the Ki on SYK kinase was 10 to 100 nM. Also, the IC50 is 100 to 1000 nM at LRRK2 and below 5 µM on MYLK.

As for `COc1ccc2nc(Nc3ccc4c(c3)ncn4C)c3n[nH]cc3c2c1` [Example #126, (8-Methoxy-2H-pyrazolo[3,4-c]quinolin-4-yl)-(1-methyl-1H-benzoimidazol-5-yl)-amine], the Ki at SYK kinase is 100 to 1000 nM. Moreover, the IC50 is 100 to 1000 nM at LRRK2 and below 5 µM at MYLK.
